The values below come from article PMC9658052, “Virtual Screening and Biological Activity Evaluation of New Potent Inhibitors Targeting Hexokinase-II” (Molecules, 2022).

The test system of assay [1] is HK-II. The note with it: cited from earlier work.
For assay [2], the system named is HeLa cells. The assay is described as follows: MTT cytotoxicity assay, HeLa. It is filed as cell-based. The note with it: Homo sapiens, 48 h, read-out: IC50 (toxicity) Hela. As for the experimental part:
(§1) Initially, we adopted the MTT assay to screen the cytotoxicity of all compounds toward three different types of cancer cell lines (HeLa, HepG 2 and A549). […] The chemical structures of the selected compounds are depicted in Figure 2.
(§2) HeLa, Hep G2, and A549 cells were purchased from the Shanghai Institute of Biochemistry and Cell Biology, Chinese Academy of Sciences. All cells were cultured in DMEM with 100 units/mL penicillin/streptomycin, 2 mM glutamine, and 10% FBS in a carbon dioxide atmosphere at 37 °C.
(§3) Cytotoxicity was quantified using a standard MTT assay, which is widely used in evaluating cell proliferation and screening for anticancer drugs. Briefly, following 7 × 10^3 cells incubating in 96-well plates for 48 h filled with DMEM medium supplemented with 10% fetal bovine serum (FBS) containing different concentrations of samples, 10 μL/well of MTT (5 mg/mL) was added. After 4 h of incubation at 37 °C, 100 μL of extraction buffer containing 5% iso-butanol, 0.1% HCl, and 10% SDS was added, and then the cells were incubated overnight. As controls, cells were treated with 0.1% (v/v) DMSO alone. The cell viability was calculated by the absorbance (570 nm) of each well obtained using a microplate reader (Thermo Scientific Multiskan GO, Vantaa, Finland).
(Formazan colour is commonly taken as a measure of viable cells.)

For assay [3], the system named is HepG 2 cells. As to the kind of experiment: MTT cytotoxicity assay, HepG 2. It is filed as cell-based. Particulars: Homo sapiens, HepG2, 48 h, read-out: IC50 (toxicity) HepG 2. As for the experimental part:
as §1, §2, §3

Assay [4] concerns A549 cells. The assay is described as follows: MTT cytotoxicity assay, A549. The class given is cell-based. The note with it: Homo sapiens, 48 h, read-out: IC50 (toxicity) A549. On the procedure:
as §1, §2, §3

Assay [5] deals with T1, Hexokinase-II enzyme (Homo sapiens, UniProt P52789).
T1 construct: purchased Abcam ab211114
T1 sequence (P52789 1-917): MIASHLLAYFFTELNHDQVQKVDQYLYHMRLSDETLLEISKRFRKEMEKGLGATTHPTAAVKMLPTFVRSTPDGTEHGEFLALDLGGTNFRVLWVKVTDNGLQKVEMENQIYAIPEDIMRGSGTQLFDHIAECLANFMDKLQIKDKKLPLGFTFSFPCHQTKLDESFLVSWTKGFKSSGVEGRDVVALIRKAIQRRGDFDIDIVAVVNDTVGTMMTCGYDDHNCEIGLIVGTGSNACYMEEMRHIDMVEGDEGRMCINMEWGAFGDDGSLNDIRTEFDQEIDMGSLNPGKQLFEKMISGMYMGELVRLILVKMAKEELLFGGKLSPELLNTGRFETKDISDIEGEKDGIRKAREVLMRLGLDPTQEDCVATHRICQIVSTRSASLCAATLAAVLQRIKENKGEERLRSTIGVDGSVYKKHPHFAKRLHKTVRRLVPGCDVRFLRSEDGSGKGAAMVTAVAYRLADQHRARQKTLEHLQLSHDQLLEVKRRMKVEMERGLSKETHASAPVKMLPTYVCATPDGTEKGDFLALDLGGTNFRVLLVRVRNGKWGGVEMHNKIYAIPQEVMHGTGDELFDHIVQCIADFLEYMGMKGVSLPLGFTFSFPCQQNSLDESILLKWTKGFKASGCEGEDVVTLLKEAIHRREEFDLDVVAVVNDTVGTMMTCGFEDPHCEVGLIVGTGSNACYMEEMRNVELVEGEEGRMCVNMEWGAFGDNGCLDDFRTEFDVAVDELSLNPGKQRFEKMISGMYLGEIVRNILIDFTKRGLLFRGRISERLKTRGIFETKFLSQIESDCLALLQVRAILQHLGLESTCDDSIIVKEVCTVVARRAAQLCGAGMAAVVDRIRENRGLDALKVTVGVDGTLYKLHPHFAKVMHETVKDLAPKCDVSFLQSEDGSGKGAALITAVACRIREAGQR
The assay is described as follows: Hexokinase-II inhibitor screening kit (enzyme activity). The class given is biochemical. The note with it: compound 1 to 128 μM. On the procedure: Since nine compounds display the highest cytotoxicity to three different cancer cells, we then verified the effects of the compounds on Hexokinase-II activity.
Figure 3 Inhibition of compounds 4244-3659 and K611-0094 on Hexokinase-II activity. […] All data were expressed as mean ± SE from three independent experiments. ** p < 0.01 vs. the control groups.
The Hexokinase-II activity was tested via a Hexokinase-II inhibitor screening kit (Abcam, Cambridge, UK, ab211114), and all experiments were carried out following the manufacturer’s instructions. […] HK assay buffer was treated as negative control, bromopyruvic acid was used for positive controls, and DMSO was used as a solvent control. The value of OD at 450 nm at 15 min and 25 min was recorded. IC50 values were calculated in GraphPad Prism 5.

Details of assay [6]: method as in PMID 20215500, PMID 16044218. Particulars: mice, dose range from 500 mg/Kg to 2000 mg/Kg; cited from earlier work.
Where [7] appears, read: 5 min at 25 °C preincubation, read-out: EC50, inhibitory effect on HK-II enzyme activity.
[8] abbreviates: read-out: IC50 on Hexokinase-II enzyme.

Read-outs that look alike come from different tables or passages of the source.

Take “€-4-Nitro-N′-(2,3,4-trihydroxybenzylidene)”: the IC50 in assay [1] (read-out: enzyme activity (HK2 inhibitor)) was 0.53 ± 0.13 µM.
As for `O[C@H](CNCc1ccccc1)COc1cccc2ccccc12` [AO-423/13128074], the IC50 is 27.7 ± 0.6 µM in assay [2], 30 ± 1.4 µM in assay [3], 38.6 ± 0.8 µM in assay [4] and above 128 µM in assay [5] (setting [7]).
Take `CC(=O)c1c(C)[nH]c2ccc(OC[C@@H](O)CNCCc3ccccc3)cc12` [D016-0099]: the IC50 in assay [2] came to 48.5 ± 1.2 µM; in assay [3], 44.2 ± 0.6 µM; in assay [4] it was 50.4 ± 0.3 µM.
For `Cc1ccc(C(C)C)c(OC[C@H](O)CNCc2ccccc2)c1` [AP-124/43383769], the IC50 in assay [2] amounted to 25.1 ± 0.9 µM; in assay [3] it was 23.3 µM; in assay [4] it was 36.5 ± 0.4 µM; in assay [5] (setting [7]), 104 ± 1.1 µM.
Take `CN(C)C(=N)N=C(N)N` [metformin]: the IC50 in assay [1] (weak inhibitory effect, read-out: IC50 against HK-II) was above 10000 µM.
For `O=CC[C@@H](O)[C@H](O)[C@H](O)CO` [2-Deoxyglucose (2-DG), 2-Deoxyglucose], in assay [6], the “therapeutic effect of a single agent” value is recorded as “no significant therapeutic effect”.
`CN1C(=O)[C@](O)(CC(=O)c2cc(O)ccc2O)c2ccccc21` [4244-3659]: the IC50 in assay [2] is 62.1 ± 2 µM; in assay [3], 62.5 ± 2.1 µM; in assay [4], 54.6 ± 2.6 µM; in assay [5] (setting [7]), 17.5 ± 1.4 µM; in assay [5] (setting [8]), 17.5 ± 1.4 µM.
Take `O=C(CSc1nc2c(sc3ccccc32)c(=O)n1Cc1cccnc1)Nc1ccc(O)c(O)c1` [K263-0793]: the IC50 in assay [2] was 22.4 ± 1.4 µM; in assay [3], 22.1 ± 0.9 µM; in assay [4], 27.1 ± 1.4 µM; in assay [5] (setting [7]), above 128 µM.
Consider `Nc1nc(SCC(=O)Nc2cccc([N+](=O)[O-])c2)sc1C(=O)Nc1nccs1` [K611-0094], for which the IC50 was determined as 47.8 ± 0.6 µM in assay [2]; 57.9 ± 1.7 µM in assay [3]; 48.8 ± 1.2 µM in assay [4]; 45 ± 1.1 µM in assay [5] (setting [7]); 45 ± 1.1 µM in assay [5] (setting [8]).
With `O=C(N/N=C/c1ccc(Cl)c(Cl)c1)c1cc(O)c(O)c(O)c1` [AK-968/41922716], the results for the IC50 in assay [2], in assay [3] and in assay [4] were 28.5 ± 1.9 µM, 40 ± 0.2 µM and 31 µM, respectively.
In the case of `O=C(O)C(=O)CBr` [3-Bromopyruvate (3-BrPA), 3-Bromopyruvate], in assay [1], the “inhibitory action against HK-II” value is on record as “moderate inhibitory action”.
Consider `CCOC(=O)c1c(C)n(C)c2ccc(OC[C@H](O)CN[C@H](CC)CO)cc12` [6913-0012], for which the IC50 in assay [2] was found to be 51.9 ± 1.5 µM; in assay [3] it was 59 ± 0.2 µM; in assay [4], 62.6 ± 0.7 µM.
